Patent publication US10441663B2, “Methods for treating cancer” (Bicycle Therapeutics Limited, priority 2016, dated 2019)
*1 amine or outer side, *2 acyl side, *3 side chain or, on linkers, in order; H or OH if unused. Where a SMILES comes first, the peptide text is derived from it. Bridges are numbered along the chain shown (N, C = ends). [ ]: non-standard residue; d: D form. The star is where a group is joined. X1 = COc1cc2cc(c1Cl)N(C)C(=O)C[C@H](OC(=O)[C@H](C)N(C)C(=O)CCSSC(C)CCC(=O)*)[C@]1(C)O[C@H]1[C@H](C)[C@@H]1C[C@@](O)(NC(=O)O1)[C@H](OC)/C=C/C=C(\C)C2; 1Nal = N[C@@H](Cc1cccc2ccccc12)C(=O)O; TBMB = c1c(C[*:1])cc(C[*:3])cc1C[*:2]; Tle = CC(C)(C)[C@H](N)C(=O)O; βAla = NCCC(=O)O; Sar = CNCC(=O)O

System: HT1080 xenograft
Assay: In vivo efficacy of BT1718 in HT1080 xenograft
Design: species or system Mus Musculus; key to Best response at 10 mg/kg: CR complete response; PR partial response
Method: The objective of this study was to evaluate the in vivo anti-tumor efficacy of BT1718in treatment of HT1080, NCI-H292, NCI-H1975, MDA-MB-231, HCC1806, RPMI2650, HCT-15, HT-29 and SNU-16 xenograft in BALB/c nude mice.
The HT1080, NCI-H292, NCI-H1975, MDA-MB-231, HCC1806, RPMI2650, HCT-15, HT-29 and SNU-16 tumor cells were maintained in vitro as a monolayer culture in medium supplemented with 10% heat inactivated fetal bovine serum at 37° C. in an […]. The tumor cells will be routinely subcultured twice weekly by trypsin-EDTA treatment. The cells growing in an exponential growth phase will be harvested and counted for tumor inoculation.
Mouse was inoculated subcutaneously at the right flank with tumor cells for tumor development. The animals were randomized and treatment was started when the average tumor reaches certain volume for the efficacy study, the inoculating cell amounts and starting tumor size were shown as below in Table 9. The test article administration and the animal numbers in each group were shown in the experimental design in Table 10.
All the procedures related to animal handling, care and the treatment in the study were performed according to the guidelines of the Association for Assessment and Accreditation of Laboratory Animal Care (AAALAC). At the time of routine monitoring, the animals were daily checked for any effects of tumor growth and treatments on normal behavior such as mobility, food and water consumption (by looking only), body weight gain/loss (body weights were measured every day), eye/hair matting and any other abnormal effect as stated in the protocol. Death and observed clinical signs were recorded on the basis of the numbers of animals within each subset.
The major endpoint was to see if the tumor growth could be delayed or mice could be cured. Tumor size was measured three times weekly in two dimensions using a caliper, and the volume was expressed in mm^3 using the formula: V=0.5 a×b^2 where a and b are the long and short diameters of the tumor, respectively. The tumor size was then used for calculations of T/C value. The T/C value (in percent) is an indication of antitumor effectiveness; T and C are the mean volumes of the treated and control groups, respectively, on a given day.
TGI was calculated for each group using the formula: TGI (%)=[1−(Ti−T0)/(Vi−V0)]×100; Ti is the average tumor volume of a treatment group on a given day, T0 is the average tumor volume of the treatment group on the day of treatment start, Vi is the average tumor volume of the vehicle control group on the same day with Ti, and V0 is the average tumor volume of the vehicle group on the day of treatment start.
Summary statistics, including mean and the standard error of the mean (SEM), are provided for the tumor volume of each group at each time point.
Statistical analysis of difference in tumor volume among the groups was conducted on the data obtained at the best therapeutic time point after the final dose.
A one-way ANOVA was performed to compare tumor volume among groups, and when a significant F-statistics (a ratio of treatment variance to the error variance) was obtained, comparisons between groups were carried out with Games-Howell test. All data were analyzed using Prism. P<0.05 was considered to be statistically significant.

## COc1cc2cc(c1Cl)N(C)C(=O)C[C@H](OC(=O)[C@H](C)N(C)C(=O)CCSSC(C)CCC(=O)NCCC(=O)N(C)CC(=O)N(C)CC(=O)N(C)CC(=O)N(C)CC(=O)N(C)CC(=O)N(C)CC(=O)N(C)CC(=O)N(C)CC(=O)N(C)CC(=O)N(C)CC(=O)N[C@@H](C)C(=O)N[C@H]1CSCc3cc4cc(c3)CSC[C@H](NC(=O)[C@@H](C)NC(=O)[C@H](Cc3cccc5ccccc35)NC(=O)[C@H](CCC(=O)O)NC(=O)[C@H](CC(N)=O)NC(=O)[C@@H](C)NC1=O)C(=O)N[C@@H](CCC(=O)O)C(=O)N[C@@H](CC(=O)O)C(=O)N[C@@H](Cc1ccccc1)C(=O)N[C@@H](Cc1ccc(O)cc1)C(=O)N[C@@H](CC(=O)O)C(=O)N[C@@H](C(C)(C)C)C(=O)N[C@H](C(N)=O)CSC4)[C@]1(C)O[C@H]1[C@H](C)[C@@H]1C[C@@](O)(NC(=O)O1)[C@H](OC)/C=C/C=C(\C)C2 (stereo partly drawn) [BT1718] ({X1-βAla}-[Sar][Sar][Sar][Sar][Sar][Sar][Sar][Sar][Sar][Sar]AC[dA]NE[1Nal][dA]CEDFYD[Tle]C-NH2; linker 12-18-25 via TBMB (inferred))
3 mg/kg biw
  animals with transient response on re-dosing: 1/3
3 mg/kg biw re-dosing
  animals that ultimately re-grew despite dosing: 3/3
10 mg/kg biw, suspension period of 2 months
  re-growth during dosing suspension: did not re-grow
10 mg/kg qw, re-growth in weeks 3-4 of re-dosing
  response on re-dosing of the relapsed animal: transient response
1 mpk biw, day 0
  Body Weight: 22.7 ± 0.5 g
  Tumor Volume: 177 ± 6 mm^3
1 mpk biw, day 2
  Body Weight: 22.2 ± 0.4 g
  Tumor Volume: 265 ± 33 mm^3
1 mpk biw, day 4
  Body Weight: 22.3 ± 0.2 g
  Tumor Volume: 669 ± 107 mm^3
1 mpk biw, day 7
  Body Weight: 22.2 ± 0.2 g
  Tumor Volume: 1009 ± 156 mm^3
1 mpk biw, day 9
  Body Weight: 21.5 ± 0.2 g
  Tumor Volume: 1318 ± 146 mm^3
1 mpk biw, day 11
  Body Weight: 20.1 ± 0.1 g
  Tumor Volume: 1526 ± 160 mm^3
1 mpk biw, day 14
  Body Weight: 19.4 ± 0.0 g
  Tumor Volume: 1650 ± 218 mm^3
1 mpk qw, day 0
  Body Weight: 22.5 ± 0.6 g
  Tumor Volume: 178 ± 4 mm^3
1 mpk qw, day 2
  Body Weight: 22.2 ± 0.5 g
  Tumor Volume: 257 ± 26 mm^3
1 mpk qw, day 4
  Body Weight: 22.6 ± 0.5 g
  Tumor Volume: 627 ± 112 mm^3
1 mpk qw, day 7
  Body Weight: 22.3 ± 0.3 g
  Tumor Volume: 934 ± 176 mm^3
1 mpk qw, day 9
  Body Weight: 22.2 ± 0.3 g
  Tumor Volume: 1253 ± 182 mm^3
1 mpk qw, day 11
  Body Weight: 20.5 ± 0.3 g
  Tumor Volume: 1593 ± 251 mm^3
1 mpk qw, day 14
  Body Weight: 19.6 ± 0.2 g
  Tumor Volume: 1814 ± 320 mm^3
3 mpk biw, day 0
  Body Weight: 23.1 ± 0.6 g
  Tumor Volume: 178 ± 15 mm^3
3 mpk biw, day 2
  Body Weight: 22.8 ± 0.9 g
  Tumor Volume: 196 ± 16 mm^3
3 mpk biw, day 4
  Body Weight: 22.5 ± 0.7 g
  Tumor Volume: 100 ± 10 mm^3
3 mpk biw, day 7
  Body Weight: 23.4 ± 0.8 g
  Tumor Volume: 39 ± 8 mm^3
3 mpk biw, day 9
  Body Weight: 24 ± 1.1 g
  Tumor Volume: 18 ± 10 mm^3
3 mpk biw, day 11
  Body Weight: 24.5 ± 0.9 g
  Tumor Volume: 8 ± 8 mm^3
3 mpk biw, day 14
  Body Weight: 24.7 ± 0.9 g
  Tumor Volume: 3 ± 3 mm^3
3 mpk qw, day 0
  Body Weight: 22.6 ± 0.3 g
  Tumor Volume: 179 ± 18 mm^3
3 mpk qw, day 2
  Body Weight: 21.4 ± 0.2 g
  Tumor Volume: 191 ± 17 mm^3
3 mpk qw, day 4
  Body Weight: 21.8 ± 0.8 g
  Tumor Volume: 183 ± 90 mm^3
3 mpk qw, day 7
  Body Weight: 22.0 ± 1.1 g
  Tumor Volume: 218 ± 149 mm^3
3 mpk qw, day 9
  Body Weight: 21.3 ± 0.7 g
  Tumor Volume: 266 ± 142 mm^3
3 mpk qw, day 11
  Body Weight: 21.4 ± 0.5 g
  Tumor Volume: 254 ± 125 mm^3
3 mpk qw, day 14
  Body Weight: 21.0 ± 0.6 g
  Tumor Volume: 306 ± 119 mm^3
10 mpk biw, day 0
  Body Weight: 22.5 ± 1.0 g
  Tumor Volume: 180 ± 21 mm^3
10 mpk biw, day 2
  Body Weight: 21.8 ± 1.2 g
  Tumor Volume: 182 ± 41 mm^3
10 mpk biw, day 4
  Body Weight: 21.8 ± 1.1 g
  Tumor Volume: 58 ± 14 mm^3
10 mpk biw, day 7
  Body Weight: 22.7 ± 0.9 g
  Tumor Volume: 32 ± 7 mm^3
10 mpk biw, day 9
  Body Weight: 22.1 ± 0.9 g
  Tumor Volume: 27 ± 14 mm^3
10 mpk biw, day 11
  Body Weight: 22 ± 1.1 g
  Tumor Volume: 26 ± 13 mm^3
10 mpk biw, day 14
  Body Weight: 22.6 ± 1.0 g
  Tumor Volume: 20 ± 11 mm^3
10 mpk qw, day 0
  Body Weight: 22.6 ± 1.2 g
  Tumor Volume: 179 ± 14 mm^3
10 mpk qw, day 2
  Body Weight: 21.1 ± 1.2 g
  Tumor Volume: 146 ± 19 mm^3
10 mpk qw, day 4
  Body Weight: 22.1 ± 1.2 g
  Tumor Volume: 35 ± 4 mm^3
10 mpk qw, day 7
  Body Weight: 23.2 ± 1.0 g
  Tumor Volume: 25 ± 3 mm^3
10 mpk qw, day 9
  Body Weight: 22.7 ± 1.1 g
  Tumor Volume: 15 ± 8 mm^3
10 mpk qw, day 11
  Body Weight: 23.8 ± 1.3 g
  Tumor Volume: 5 ± 5 mm^3
10 mpk qw, day 14
  Body Weight: 24.8 ± 1.5 g
  Tumor Volume: 5 ± 5 mm^3
HT1080, 10 mg/kg
  Best response at 10 mg/kg: CR
HT1080, 1 mpk, biw, day 14
  TGI: 26.5%
  Tumor Volume: 1650 ± 218 mm^3
HT1080, 1 mpk, qw, day 14
  TGI: 18.4%
  Tumor Volume: 1814 ± 320 mm^3
HT1080, 3 mpk, biw, day 14
  TGI: 108.7%
  Tumor Volume: 3 ± 3 mm^3
HT1080, 3 mpk, qw, day 14
  TGI: 93.7%
  Tumor Volume: 306 ± 119 mm^3
HT1080, 10 mpk, biw, day 14
  TGI: 108.0%
  Tumor Volume: 20 ± 11 mm^3
HT1080, 10 mpk, qw, day 14
  TGI: 108.7%
  Tumor Volume: 5 ± 5 mm^3
HT1080, dose leading to tumor-stasis
  Minimally Effective Dose IV BIW: <3 mg/kg
After 2 weeks, 3 mg/kg biw, 10 mg/kg qw and 10 mg/kg biw
  tumor response: completely regressed
Previously 3 mg/kg biw
  animals with re-growth to 150 mm3 following cessation of dosing: 3/3
Previously 10 mg/kg qw
  animals with re-growth to 150 mm3 following cessation of dosing: 1/3
